Tests used:
[1] = Inhibition of CAMK2
[2] = biological target: RAC-alpha serine/threonine-protein kinase (Homo sapiens, UniProt P31749); assay: Inhibition of AKT1
[3] = biological target: T1, Calcium/calmodulin-dependent protein kinase type IV (Homo sapiens, UniProt Q16566); assay: Inhibition of CAMK4
T1 sequence (Q16566 whole entry): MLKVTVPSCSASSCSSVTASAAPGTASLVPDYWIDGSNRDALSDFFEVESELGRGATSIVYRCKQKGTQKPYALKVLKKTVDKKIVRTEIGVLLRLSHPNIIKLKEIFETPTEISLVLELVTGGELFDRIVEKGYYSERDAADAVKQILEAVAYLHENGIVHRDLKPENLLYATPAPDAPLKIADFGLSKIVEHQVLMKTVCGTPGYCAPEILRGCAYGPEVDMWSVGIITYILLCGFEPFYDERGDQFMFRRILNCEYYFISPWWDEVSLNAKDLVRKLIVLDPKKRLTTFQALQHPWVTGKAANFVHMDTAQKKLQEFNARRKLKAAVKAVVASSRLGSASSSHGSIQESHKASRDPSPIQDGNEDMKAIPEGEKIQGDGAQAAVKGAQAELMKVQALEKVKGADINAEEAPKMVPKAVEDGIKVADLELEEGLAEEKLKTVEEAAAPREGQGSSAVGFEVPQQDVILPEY

[4] = Inhibition of PKC
[5] = biological target: Mitogen-activated protein kinase 14 (Homo sapiens, UniProt Q16539); assay: Inhibition of p38alpha
Sequence of Mitogen-activated protein kinase 14 (Q16539 whole entry): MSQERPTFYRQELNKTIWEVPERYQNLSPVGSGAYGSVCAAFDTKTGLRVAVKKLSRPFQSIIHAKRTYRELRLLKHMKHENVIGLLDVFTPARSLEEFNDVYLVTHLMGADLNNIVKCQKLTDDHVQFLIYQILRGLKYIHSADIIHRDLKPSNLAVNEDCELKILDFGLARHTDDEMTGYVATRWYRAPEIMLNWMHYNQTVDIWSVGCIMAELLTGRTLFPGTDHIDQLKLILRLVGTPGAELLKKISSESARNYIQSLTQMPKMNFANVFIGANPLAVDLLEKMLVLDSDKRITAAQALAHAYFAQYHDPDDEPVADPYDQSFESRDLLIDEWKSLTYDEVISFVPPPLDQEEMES

[6] = biological target: Myosin light chain kinase, smooth muscle (Homo sapiens, UniProt Q15746); assay: Inhibition of MLCK
Sequence of Myosin light chain kinase, smooth muscle (Q15746 whole entry): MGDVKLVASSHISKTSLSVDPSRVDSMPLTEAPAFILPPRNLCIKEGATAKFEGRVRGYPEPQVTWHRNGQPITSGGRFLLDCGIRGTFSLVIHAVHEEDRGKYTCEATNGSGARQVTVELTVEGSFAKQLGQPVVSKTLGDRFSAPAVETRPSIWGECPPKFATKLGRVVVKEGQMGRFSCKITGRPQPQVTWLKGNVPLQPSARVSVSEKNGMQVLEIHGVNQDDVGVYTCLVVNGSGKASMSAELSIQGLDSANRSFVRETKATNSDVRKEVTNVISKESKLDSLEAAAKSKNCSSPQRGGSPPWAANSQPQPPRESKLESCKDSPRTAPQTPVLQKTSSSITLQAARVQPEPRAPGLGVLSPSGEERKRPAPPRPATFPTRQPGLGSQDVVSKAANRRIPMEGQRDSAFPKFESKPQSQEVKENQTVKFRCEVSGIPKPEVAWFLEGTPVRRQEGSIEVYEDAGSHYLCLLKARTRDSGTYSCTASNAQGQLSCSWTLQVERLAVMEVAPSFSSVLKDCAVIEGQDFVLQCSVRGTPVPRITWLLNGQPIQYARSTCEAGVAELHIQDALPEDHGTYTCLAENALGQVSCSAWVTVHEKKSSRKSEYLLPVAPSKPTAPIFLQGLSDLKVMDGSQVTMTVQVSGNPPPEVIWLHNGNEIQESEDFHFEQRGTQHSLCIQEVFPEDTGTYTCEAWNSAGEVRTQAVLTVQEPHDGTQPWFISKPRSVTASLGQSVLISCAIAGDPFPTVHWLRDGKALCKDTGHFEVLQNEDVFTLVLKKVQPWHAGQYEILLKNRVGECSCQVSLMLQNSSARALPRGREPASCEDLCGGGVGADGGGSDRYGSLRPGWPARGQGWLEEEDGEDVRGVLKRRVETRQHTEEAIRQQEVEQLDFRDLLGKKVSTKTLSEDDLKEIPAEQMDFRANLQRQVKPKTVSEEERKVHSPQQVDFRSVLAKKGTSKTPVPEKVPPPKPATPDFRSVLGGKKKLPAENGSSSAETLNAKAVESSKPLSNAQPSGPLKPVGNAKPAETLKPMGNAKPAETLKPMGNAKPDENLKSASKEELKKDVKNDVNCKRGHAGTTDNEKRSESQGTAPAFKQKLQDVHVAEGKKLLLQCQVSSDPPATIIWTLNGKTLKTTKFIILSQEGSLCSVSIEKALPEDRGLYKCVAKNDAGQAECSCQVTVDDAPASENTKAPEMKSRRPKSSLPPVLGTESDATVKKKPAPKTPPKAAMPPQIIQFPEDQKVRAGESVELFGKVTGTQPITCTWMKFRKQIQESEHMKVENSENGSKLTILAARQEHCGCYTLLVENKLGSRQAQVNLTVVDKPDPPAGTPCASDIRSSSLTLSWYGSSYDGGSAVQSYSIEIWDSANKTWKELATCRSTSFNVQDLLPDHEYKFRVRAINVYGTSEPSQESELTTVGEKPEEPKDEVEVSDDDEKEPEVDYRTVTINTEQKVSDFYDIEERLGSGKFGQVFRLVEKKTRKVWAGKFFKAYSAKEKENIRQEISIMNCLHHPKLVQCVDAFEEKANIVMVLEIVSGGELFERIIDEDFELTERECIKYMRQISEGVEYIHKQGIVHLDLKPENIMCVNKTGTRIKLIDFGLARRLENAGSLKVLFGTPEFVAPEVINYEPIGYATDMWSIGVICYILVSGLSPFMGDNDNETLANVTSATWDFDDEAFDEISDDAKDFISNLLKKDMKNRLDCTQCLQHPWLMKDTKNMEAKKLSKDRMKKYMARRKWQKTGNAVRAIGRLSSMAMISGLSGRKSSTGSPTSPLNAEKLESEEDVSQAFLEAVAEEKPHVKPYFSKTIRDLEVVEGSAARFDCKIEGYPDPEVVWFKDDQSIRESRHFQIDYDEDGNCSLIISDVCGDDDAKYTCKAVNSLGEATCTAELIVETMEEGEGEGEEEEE

[7] = Non-competitive inhibition of CAMK2 by Michaelis-Menten plot

Sequence of RAC-alpha serine/threonine-protein kinase (P31749 whole entry): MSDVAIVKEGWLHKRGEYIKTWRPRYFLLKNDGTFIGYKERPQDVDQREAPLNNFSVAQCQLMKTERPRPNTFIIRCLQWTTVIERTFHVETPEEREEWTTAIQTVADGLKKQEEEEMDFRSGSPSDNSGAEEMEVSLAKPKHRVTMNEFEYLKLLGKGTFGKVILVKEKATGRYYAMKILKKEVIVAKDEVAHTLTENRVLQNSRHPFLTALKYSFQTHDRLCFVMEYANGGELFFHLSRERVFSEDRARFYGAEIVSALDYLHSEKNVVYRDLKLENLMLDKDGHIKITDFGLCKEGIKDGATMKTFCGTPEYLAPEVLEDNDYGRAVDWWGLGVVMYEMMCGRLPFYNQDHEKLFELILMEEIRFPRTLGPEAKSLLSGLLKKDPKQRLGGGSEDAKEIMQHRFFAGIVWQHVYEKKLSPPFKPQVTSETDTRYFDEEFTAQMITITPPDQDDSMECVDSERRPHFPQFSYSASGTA

| SMILES | IC50 [1] [nM] | other results |
| --- | --- | --- |
| CS(=O)(=O)Nc1ccnc(NCCc2ccccc2)n1 | 60000 |  |
| O=S(=O)(Nc1nc(OCCc2ccccc2)nc2c1CN(Cc1ccccc1)CC2)c1ccc2ccccc2c1 | 1800 |  |
| Cc1ccccc1S(=O)(=O)Nc1nc(NCCc2ccccc2)nc2c1CN(Cc1ccccc1)CC2 | 530 |  |
| Cc1cccc(S(=O)(=O)Nc2nc(NCCc3ccccc3)nc3c2CN(Cc2ccccc2)CC3)c1 | 2400 |  |
| Cc1ccc(S(=O)(=O)Nc2nc(NCCc3ccccc3)nc3c2CN(Cc2ccccc2)CC3)cc1 | 2700 |  |
| COc1ccc(S(=O)(=O)Nc2nc(NCCc3ccccc3)nc3c2CN(Cc2ccccc2)CC3)cc1 | 3200 |  |
| Cc1c(Cl)cccc1S(=O)(=O)Nc1nc(NCCc2ccccc2)nc2c1CN(Cc1ccccc1)CC2 | 63 | IC50 [2]: 30 µM; IC50 [3]: > 60 µM; IC50 [4]: 21 µM; IC50 [5]: 11 µM; IC50 [6]: 36 µM |
| Cc1ccc(S(=O)(=O)Nc2nc(NCCc3ccccc3)nc3c2CN(Cc2ccccc2)CC3)cc1Cl | 760 |  |
| O=S(=O)(Nc1ccnc(NCCc2ccccc2)n1)c1ccc(Cl)cc1 | 11000 | IC50 [6]: 51 µM |
| O=S(=O)(Cc1ccccc1)Nc1ccnc(NCCc2ccccc2)n1 | 27000 |  |
| O=S(=O)(Nc1nc(NCCc2ccccc2)nc2c1CCCC2)c1ccc(Cl)cc1 | 60000 |  |
| O=S(=O)(Nc1nc(NCCc2ccccc2)nc2c1CN(Cc1ccccc1)CC2)c1ccccc1 | 9700 |  |
| O=S(=O)(Nc1nc(NCCc2ccccc2)nc2c1CN(Cc1ccccc1)CC2)c1ccc(Cl)cc1 | 3200 |  |
| CN1CCc2nc(NCCc3ccccc3)nc(NS(=O)(=O)c3ccccc3)c2C1 | 10000 |  |
| CN(c1nc(NCCc2ccccc2)nc2c1CN(Cc1ccccc1)CC2)S(=O)(=O)c1ccccc1 | 9300 |  |
| CCCN(c1nc(NCCc2ccccc2)nc2c1CN(Cc1ccccc1)CC2)S(=O)(=O)c1ccccc1 | > 30000 |  |
| O=S(=O)(Nc1nc(NCCc2ccccc2)nc2c1CN(Cc1ccccc1)CC2)c1ccccc1Cl | 920 |  |
| O=S(=O)(Nc1nc(NCCc2ccccc2)nc2c1CN(Cc1ccccc1)CC2)c1cccc(Cl)c1 | 420 |  |
| O=S(=O)(Nc1nc(NCCc2ccccc2)nc2c1CN(Cc1ccccc1)CC2)c1cccc(Cl)c1Cl | 1000 |  |
| O=S(=O)(Nc1nc(NCCc2ccccc2)nc2c1CN(Cc1ccccc1)CC2)c1ccc(Cl)c(Cl)c1 | 200 |  |
| O=S(=O)(Nc1nc(NCCc2ccccc2)nc2c1CN(Cc1ccccc1)CC2)c1cccc2ccccc12 | 3300 |  |
| O=S(=O)(Nc1nc(NCCc2ccccc2)nc2c1CN(Cc1ccccc1)CC2)c1ccc2ccccc2c1 | 160 | IC50 [2]: 8.5 µM; IC50 [3]: > 60 µM; IC50 [4]: 22 µM; Ki [7]: 926 nM; IC50 [5]: 11 µM; IC50 [6]: 0.9 µM |
| COc1ccc(S(=O)(=O)N(CCO)c2ccccc2CN(C)C/C=C/c2ccc(Cl)cc2)cc1 | 1600 |  |

— ChEMBL document CHEMBL1268914, “5,6,7,8-Tetrahydropyrido[4,3-d]pyrimidines as novel class of potent and highly selective CaMKII inhibitors” (Bioorg Med Chem Lett, 2010)
